Legend:
[1] = Toxicity in NMRI mouse back skin assessed as survival rate at 11.7 ug for 48 weeks measured after 24 weeks; format: organism-based, Zone of skin; details: in vivo, topical or ocular, read-out: Activity
[2] = Toxicity in NMRI mouse assessed as survival rate at 3.1 ug for 48 weeks measured after 24 weeks; format: organism-based; details: in vivo, read-out: Activity
Mus musculus [3] = species: Mus musculus; assay: Toxicity in NMRI mouse assessed as drug level required for irritant activity in 50% animal assessed per ear; format: organism-based; details: in vivo
Mus musculus [4] = species: Mus musculus; assay: Carcinogenic activity in NMRI mouse assessed as number of tumor bearing mouse at 12.2 ug for 34 weeks measured after 12 weeks; format: ADME, organism-based; details: in vivo, 2016 h
Mus musculus [5] = species: Mus musculus; assay: Carcinogenic activity in NMRI mouse assessed as number of tumors per mouse at 12.2 ug for 34 weeks measured after 12 weeks; format: ADME, organism-based; details: in vivo, 2016 h
[6] = Toxicity in NMRI mouse assessed as survival rate at 12.2 ug for 34 weeks measured after 24 weeks; format: organism-based; details: in vivo, read-out: Activity

SMILES	survival at 4032 h [1] [%]	survival at 4032 h [2] [%]	Activity (Mus musculus [3]) [µg]	Activity (Mus musculus [4])	Activity (Mus musculus [5])	survival at 4032 h [6] [%]
C=C(C)[C@]12C[C@@H](C)[C@@]34O[C@](/C=C/C=C/CCCCCCCCC)(O[C@@H]1[C@@H]3[C@@H]1O[C@]1(CO)[C@@H](O)[C@]1(O)C(=O)C(C)=C[C@H]14)O2	96	96	–	–	–	–
CCCCCCCCCCCCCC(=O)O[C@@H]1[C@@H](C)[C@@]2(O)[C@@H](C=C(CO)C[C@]3(O)C(=O)C(C)=C[C@@H]23)[C@@H]2C(C)(C)[C@]12OC(C)=O [TETRADECANOYL PHORBOL ACETATE]	–	96	0.01	–	–	–
CCCCCCCCC/C=C/C=C/C=C/C(=O)O[C@@]12C[C@@H](C)[C@@]3(O)[C@H]([C@@H]1C2(C)C)[C@@H]1O[C@]1(CO)[C@@H](O)[C@]1(O)C(=O)C(C)=C[C@H]13 [MANCINELLIN]	–	–	0.15	Not Active	Not Active	100

Source: ChEMBL document CHEMBL1148994, “On the active principles of the spurge family, X. Skin irritants, cocarcinogens, and cryptic cocarcinogens from the latex of the manchineel tree” (J Nat Prod, 1984)
